Data on nine compounds can be found in PubChem BioAssay (NCI).

Holding throughout (assay): inhibition of tumour cell growth, NCI panel, 48 h
Assay [1] relates to SR leukemia.
The test system of assay [2] is RPMI-8226 leukemia.
Assay [3] deals with MALME-3M melanoma.
Assay [4] deals with SF-539 CNS.
The subject of assay [5] is HT29 colon.
Assay [6] has as its system SN12C renal.
Assay [7] has as its system HCT-15 colon.
Assay [8] deals with RXF 393 renal.
The subject of assay [9] is MCF7 breast.
In assay [10] the test system is CAKI-1 renal.

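Results reflect a 48-hour exposure of cells in 96-well plates to compound at five concentrations. GI50: concentration for 50% inhibition of growth. TGI: concentration producing complete growth inhibition.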

Turning to `Cc1ccc(C2=NN(c3ccc(S(N)(=O)=O)cc3)C(c3cn(-c4ccccc4)nc3-c3ccccc3)C2)cc1` (stereo not given), the GI50 in assay [1] was 5.92 µM; in assay [2], 6.35 µM; in assay [3] it was 81 µM; in assay [4] it was more than 100 µM; in [5], 4.8 µM; in assay [6], 2.23 µM. In addition, the GI50 was 7.53 µM in [7], 3.81 µM in assay [8], 3.19 µM in [9] and 6.17 µM in assay [10]. For the same compound, the TGI in assay [1] is more than 100 µM; in assay [2], more than 100 µM; in assay [3], more than 100 µM; in [4], more than 100 µM; in [5], more than 100 µM; in assay [6] it was 5 µM. Further, the TGI in assay [7] is more than 100 µM; in assay [8], 17.8 µM; in assay [9], more than 100 µM; in assay [10], more than 100 µM.
For `C=CCSSc1ncnc2c1ncn2C1OC(CO)C(O)C1O` (stereo not given), the GI50 in [1] was 0.205 µM; in assay [2], 1.15 µM; in [3] it was 2.48 µM; in [4], 2.28 µM; in [5], 2.7 µM; in assay [6], 11.3 µM. Also, the GI50 in assay [7] was 3.28 µM; in assay [8] it was 6.93 µM; in [9] it was 0.567 µM; in assay [10] it was 0.799 µM. The TGI was 3.73 µM in [1]; 6.47 µM in assay [2]; more than 47.4 µM in assay [3]; 21 µM in [4]; more than 93.6 µM in assay [5]; more than 100 µM in assay [6]. In addition, the TGI in assay [7] was more than 100 µM; in assay [8] it was 27.1 µM; in assay [9], 11.6 µM; in assay [10], more than 68.8 µM.
Regarding `O=[N+]([O-])c1cc2c(c([N+](=O)[O-])c1)Nc1ccccc1O2`, the GI50 in assay [1] was 5.46 µM; in assay [2], 2.96 µM; in assay [3], 4.08 µM; in assay [4] it was 13.3 µM; in assay [5], 6.41 µM; in [6], 6 µM. Further, the GI50 in assay [7] is 5.49 µM; in assay [8] it was 7.35 µM; in assay [9], 4.96 µM; in [10] it was 5.36 µM. The TGI in [1] was more than 100 µM; in assay [2] it was 8.2 µM; in assay [3], more than 100 µM; in assay [4], 74.6 µM; in assay [5], 66.8 µM; in assay [6] it was more than 100 µM. Also, the TGI in assay [7] is more than 100 µM; in assay [8] it was 46.3 µM; in assay [9], more than 100 µM; in assay [10] it was 26.9 µM.
As to `Cc1cc(N(CCOS(C)(=O)=O)CCOS(C)(=O)=O)ccc1C=Nc1ccc(-c2csc(-c3ccc(Br)cc3)n2)cc1`, the TGI in [1] was more than 94.3 µM; in assay [2], more than 100 µM; in [3], 67.2 µM; in assay [4], 9.64 µM; in [5], 44.6 µM; in [6], more than 79.7 µM. Further, the TGI was found to be 50.3 µM in assay [7], 6.55 µM in assay [8], 43.8 µM in [9] and 3.96 µM in [10].
On to `Cc1cc2nc(C(Cl)Cl)nc(-c3ccccc3)n2n1`, for which the GI50 in assay [1] is 2.3 µM; in assay [2], 5.04 µM; in assay [3], 9.11 µM; in [4], 3.94 µM; in [5] it was 2.77 µM; in [6], 24.7 µM. For the same compound, the GI50 in assay [7] is 4.11 µM; in assay [8] it was 2.27 µM; in [9], 4.06 µM; in [10], 2.7 µM. The TGI was more than 100 µM in assay [1]; 44.3 µM in assay [2]; 28.1 µM in assay [3]; 25 µM in assay [4]; 13.9 µM in [5]; more than 100 µM in assay [6]. Further, the TGI is 20.8 µM in assay [7], 5.75 µM in assay [8], more than 100 µM in assay [9] and 15.4 µM in assay [10].
As to `CCCCCC/C=C1\CCC(CN(C)C)C1=O` (stereo not given), the TGI in assay [1] turned out to be 11.7 µM; in assay [2] it was 4.7 µM; in [3] it was 20.7 µM; in assay [4] it was 28.1 µM; in assay [5] it was 14.5 µM; in [6], 8.74 µM. For the same compound, the TGI is 6.61 µM in assay [7], 9.8 µM in [8], 14.7 µM in assay [9] and 9.51 µM in assay [10].
Regarding `CCOCCOC[C@H]1CCCN(c2ccnc3sc(C(N)=O)c(N)c23)C1`, the GI50 was 11 µM in assay [1]; 1.65 µM in assay [2]; 86.6 µM in [3]; more than 100 µM in [4]; more than 100 µM in assay [5]; 29.8 µM in assay [6]. In addition, the GI50 was more than 100 µM in assay [7], 47.8 µM in assay [8], 25.1 µM in assay [9] and 30.5 µM in [10]. For the same compound, the TGI in assay [1], in [2], in assay [3], in assay [4], in [5] and in [6] was more than 100 µM each time. For the same compound, the TGI in assay [7], in assay [8], in [9] and in [10] was more than 100 µM each time.
Consider `C=C(CN(C)C)C(=O)c1ccc(Oc2ccccc2)cc1`, for which the TGI in [1] was 4.24 µM; in assay [2], more than 21.8 µM; in [3], 9.18 µM; in assay [4] it was 12.2 µM; in [5], 34.3 µM; in [6] it was 16.4 µM. Moreover, the TGI was determined as 11 µM in assay [7], 7.17 µM in [8], 15.6 µM in assay [9] and 6.69 µM in assay [10].
On to `O=S(=O)(Nc1ccccn1)c1ccc(N=Nc2ccc(O)c3ncccc23)cc1`, for which the GI50 is 0.647 µM in [1]; 0.748 µM in assay [2]; 2.59 µM in assay [3]; 0.54 µM in assay [4]; 4.53 µM in assay [5]; 1.02 µM in assay [6]. The GI50 is 0.844 µM in assay [7], 1.24 µM in assay [8], 1.05 µM in assay [9] and 0.441 µM in [10]. Moreover, the TGI in assay [1] was 19.3 µM; in assay [2] it was 27.7 µM; in [3] it was 7.03 µM; in assay [4], 4.18 µM; in assay [5], 19.3 µM; in assay [6], more than 29.8 µM. Also, the TGI in [7] is 15.7 µM; in assay [8], 11.9 µM; in [9] it was 8.4 µM; in assay [10] it was 4.56 µM.
